Here are results for 25 compounds from patent US8183252B2, “Heterocyclic aspartyl protease inhibitors” (Schering Corporation, priority 2007, dated 2012).

Common to all, as to format: biochemical
One test deals with T1, human liver Cathepsin D (Homo sapiens, UniProt P07339).
T1 construct: Purified (>95%) human liver Cathepsin D; purchased Athens Research & Technology 16-12-030104; host or cells: human liver (tissue-derived)
Nature of the test: Human Cathepsin D FRET Assay. The procedure:
This assay can be run in either continuous or endpoint format. […] Substrate and enzyme are commercially available.
The assay is run in a 30 ul final volume using a 384 well Nunc black plate. 8 concentrations of compound are pre-incubated with enzyme for 30 mins at 37 C followed by addition of substrate with continued incubation at 37 C for 45 mins. The rate of increase in fluorescence is linear for over 1 h and is measured at the end of the incubation period using a Molecular Devices FLEX station plate reader.
Compound is diluted to 3× final concentration in assay buffer containing 3% DMSO. […] 10 ul of substrate is added to each well mixed and spun briefly to initiate the reaction.

A further test concerns the target T2, Mature human Renin (Homo sapiens, UniProt P00797).
T2 construct: The prodomain of the recombinant human renin-V5-6His was removed by limited proteolysis using immobilized TPCK-trypsin to give mature-human renin; V5 (C); 6His (C); made in house
T2 sequence (P00797 67-406): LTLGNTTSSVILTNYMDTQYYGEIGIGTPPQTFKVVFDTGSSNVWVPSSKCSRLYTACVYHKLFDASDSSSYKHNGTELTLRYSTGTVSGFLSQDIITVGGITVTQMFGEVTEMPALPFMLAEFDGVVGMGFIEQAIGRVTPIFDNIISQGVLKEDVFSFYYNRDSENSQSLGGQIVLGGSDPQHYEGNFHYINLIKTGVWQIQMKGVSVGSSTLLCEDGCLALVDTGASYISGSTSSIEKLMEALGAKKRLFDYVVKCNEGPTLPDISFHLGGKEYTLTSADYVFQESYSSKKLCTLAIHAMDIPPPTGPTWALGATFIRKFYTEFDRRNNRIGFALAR
Nature of the test: Human Mature Renin Enzyme Assay (FRET). To be noted: 100 μM compound; percent decrease in renin induced fluorescence after 40 min at 30 degrees celsius. An excerpt:
Human Renin was cloned from a human kidney cDNA library and C-terminally epitope-tagged with the V5-6His sequence into pCDNA3.1. pCNDA3.1-Renin-V5-6His was stably expressed in HEK293 cells and purified to >80% using standard Ni-Affinity chromatography. The prodomain of the recombinant human renin-V5-6His was removed by limited proteolysis using immobilized TPCK-trypsin to give mature-human renin. Renin enzymatic activity was monitored using a commercially available fluorescence resonance energy transfer (FRET) peptide substrate, RS-1 (Molecular Probes, Eugene, Oreg.) in 50 mM Tris-HCl pH 8.0, 100 mM NaCl, 0.1% Brij-35 and 5% DMSO buffer for 40 mins at 30 degrees celsius in the presence or absence of different concentrations of test compounds. Mature human Renin was present at approximately 200 nM. Inhibitory activity was defined as the percent decrease in renin induced fluorescence at the end of the 40 min incubation compared to vehicle controls and samples lacking enzyme.

For the next test, the target named is T3, human BACE1 (sproBACE1) (Homo sapiens, UniProt P56817).
T3 construct: sBACE1, corresponding to amino acids 1-454; made in house; host or cells: Sf9 insect cells (baculovirus), secreted into the medium
Briefly: BACE-1 Peptide Hydrolysis Assay (HTRF). Conditions: read-out: BACE-1 Ki. Summed up: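 Secreted sBACE1-myc/His from baculovirus-infected sf9 cells, purified on Q-sepharose then Ni-NTA. Substrate-initiated reactions ran 3 hr at 30° C., then were stopped with KF buffer (pH 8.0) containing SA-XL665 for HTRF read-out. EC50 was fitted by sigmoidal dose-response to percent change in ratio.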
(In general: In TR-FRET formats the signal depends on donor and acceptor labels being close together.)

Where [1] appears, read: compounds listed as exhibiting hCathD Ki under 75 nM, Ki interpolated from IC50, Km 4 uM, substrate 2.5 uM.

Like-named read-outs stand apart in the source and are kept apart here.

T3 sequence (P56817 22-454): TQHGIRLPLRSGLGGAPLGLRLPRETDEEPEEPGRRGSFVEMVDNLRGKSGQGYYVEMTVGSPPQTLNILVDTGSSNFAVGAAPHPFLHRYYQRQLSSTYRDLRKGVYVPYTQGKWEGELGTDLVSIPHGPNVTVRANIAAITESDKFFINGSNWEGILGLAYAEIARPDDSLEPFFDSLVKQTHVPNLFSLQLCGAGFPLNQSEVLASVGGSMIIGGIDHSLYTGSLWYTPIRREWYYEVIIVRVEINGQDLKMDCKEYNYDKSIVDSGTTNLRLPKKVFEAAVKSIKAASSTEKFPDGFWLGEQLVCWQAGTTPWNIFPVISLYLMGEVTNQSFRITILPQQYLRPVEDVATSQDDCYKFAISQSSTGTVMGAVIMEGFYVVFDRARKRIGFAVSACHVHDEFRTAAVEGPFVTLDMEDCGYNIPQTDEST
T1 sequence (P07339 65-161 limits assumed): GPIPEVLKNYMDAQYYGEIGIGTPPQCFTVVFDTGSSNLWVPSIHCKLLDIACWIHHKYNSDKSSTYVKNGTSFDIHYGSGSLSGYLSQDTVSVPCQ
T1 sequence (P07339 169-412 limits assumed): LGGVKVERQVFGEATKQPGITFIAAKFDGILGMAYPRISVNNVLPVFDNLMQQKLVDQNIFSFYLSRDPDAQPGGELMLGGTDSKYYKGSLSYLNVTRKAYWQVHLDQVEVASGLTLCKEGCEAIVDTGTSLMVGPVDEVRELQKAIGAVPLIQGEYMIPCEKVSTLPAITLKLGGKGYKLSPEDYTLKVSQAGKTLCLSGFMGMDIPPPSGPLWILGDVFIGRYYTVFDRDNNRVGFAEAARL

With `N=C1N[C@](CCC2CCCCC2)(CC2CCCCC2)C(=O)N1Cc1cccc([N+](=O)[O-])c1`, the Ki on human liver Cathepsin D (setting [1]) was < 75 nM. As to `CC(C)C[C@H](CO)N1C(=N)N[C@](CCC2CCCCC2)(CC2CCCCC2)C1=O`, the Ki at human liver Cathepsin D (setting [1]) was < 75 nM. In the case of `CCC[C@H]1CN(Cc2ccc(CC3C(=N)N[C@](CCC4CCCCC4)(CC4CCCCC4)C3=O)cc2)C(=O)N1` (stereo partly shown), the Ki on human liver Cathepsin D (setting [1]) was < 75 nM. With `N=C1N[C@](CCC2CCCCC2)(CC2CCCCC2)C(=O)N1Cc1ccc([N+](=O)[O-])cc1`, at human liver Cathepsin D (setting [1]), the Ki was < 75 nM.

Consider `Cc1ccccc1CN1C(=N)N[C@](CCC2CCCCC2)(CC2CCCCC2)C1=O`, for which the Ki at human liver Cathepsin D (setting [1]) is < 75 nM. Consider `N=C1N[C@](CCC2CCCCC2)(CC2CCCCC2)C(=O)N1Cc1ccc(F)cc1Cl`, for which the Ki on human liver Cathepsin D (setting [1]) was < 75 nM. For `CCCCc1cccc(C2(CCCC)NC(=N)N(CC3CCN(C(=O)COc4ccccc4)CC3)C2=O)c1` (stereo not shown), the Ki at human liver Cathepsin D (setting [1]) is < 75 nM. The same measure, in the same setting: the same measure for `CCCCC1(c2cccc(Br)c2)NC(=N)N(CC2CCN(C(=O)COc3ccccc3)CC2)C1=O` (stereo not shown): < 75 nM. Turning to `CCCCOC1CCCC(C[C@@]2(CCC3CCCCC3)NC(=N)N(C)C2=O)C1` (stereo partly shown), the Ki on human liver Cathepsin D (setting [1]) was < 75 nM.

As to `C[C@@H](C1CCCCC1)N1C(=N)N[C@](CCC2CCCCC2)(CC2CCCCC2)C1=O`, the Ki on human liver Cathepsin D (setting [1]) is < 75 nM.

Regarding `CCCCNC(=O)NCc1ccc(CN2C(=N)NC(CCC3CCCCC3)(CC3CCCCC3)C2=O)cc1` (stereo not shown), the Ki on human liver Cathepsin D (setting [1]) was < 75 nM. Same read-out and setting: next, `N=C1N[C@](CCC2CCCCC2)(CC2CCCCC2)C(=O)N1CCC(c1ccccc1)c1ccccc1`: < 75 nM; `CCCCNC(=O)NCc1ccc(CN2C(=N)NC(CCC3CCCCC3)(CC3CCCCC3)CC2=O)cc1` (stereo not shown): < 75 nM. Still for that read-out and setting: the same measure for `N=C1NC(CCC2CCCCC2)(CC2CCCCC2)C(=O)N1CC1CCN(C(=O)COc2ccccc2)CC1` (stereo not shown): < 75 nM. With `N=C1NC(CCC2CCCCC2)(c2cccc(Br)c2)C(=O)N1CC1CCN(C(=O)COc2ccccc2)CC1` (stereo not shown), the Ki at human liver Cathepsin D (setting [1]) was < 75 nM. Regarding `N=C1N[C@](CCC2CCCCC2)(CC2CCCCC2)C(=O)N1Cc1ccc(F)cc1`, the Ki on human liver Cathepsin D (setting [1]) was < 75 nM. On to `CN1C(=N)N[C@](CCC2CCCCC2)(C[C@H]2CCC[C@@H](Nc3cccnc3)C2)C1=O`, for which the “% inhibition of renin at 100 μM” value at Mature human Renin worked out at 68.8%.

As to `CCC[C@H]1CN(Cc2ccc(CN3C(=N)NC(CCC4CCCCC4)(CC4CCCCC4)C3=O)cc2)C(=O)N1` (stereo partly shown), on Mature human Renin, the “% inhibition of renin at 100 μM” value is 75.3%. The same measure, in the same setting: next, `CCC[C@H]1CN(Cc2ccc(CN3C(=N)N[C@](CCC4CCCCC4)(CC4CCCCC4)C3=O)cc2)C(=O)N1`: 76.9%.

For `N=C1N[C@](CCC2CCCCC2)(CC2CCCCC2)C(=O)N1Cc1ccc(Cl)cc1Cl` [drawing 4505], the Ki on human liver Cathepsin D (setting [1]) was < 75 nM. For the compound `N=C1N[C@](CCC2CCCCC2)(CC2CCCCC2)C(=O)N1Cc1ccc(Cl)cc1Cl` [drawing 4522], the Ki at human liver Cathepsin D (Ki interpolated from IC50 using Km 4 uM and substrate 2.5 uM, read-out: hCathD Ki) is 0.45 nM. Turning to `COc1ccc(S(=O)(=O)N2CCC(CN3C(=N)NC(c4ccccc4)(c4ccccc4)C3=O)CC2)cc1` [piperidine, 4-[(2-imino-5-oxo-4,4-diphenyl-1-imidazolidinyl)methyl]-1-[(4-methoxyphenyl)sulfonyl]-], at human BACE1 (sproBACE1), the Ki was < 5000 nM. The same measure, in the same setting: the same measure for `N=C1NC(c2ccccc2)(c2ccccc2)C(=O)N1CC1CCN(S(=O)(=O)c2ccc(OC(F)(F)F)cc2)CC1` [piperidine, 4-[(2-imino-5-oxo-4,4-diphenyl-1-imidazolidinyl)methyl]-1-[[4-(trifluoromethoxy)phenyl]sulfonyl]-]: < 5000 nM; for `CN1C(=N)NC(C)(c2cccc(-c3cc(Cl)ccc3CNC(=O)Nc3ccc(Cl)cc3)c2)C1=O` (stereo not shown) [urea, N-[[5-chloro-3′-(2-imino-1,4-dimethyl-5-oxo-4-imidazolidinyl)[1,1′-biphenyl]-2-yl]methyl]-N′-(4-chlorophenyl)-]: < 5000 nM; for `CN1C(=N)NC(C)(c2cccc(-c3cc(Cl)ccc3CNC(=O)Nc3ccccc3)c2)C1=O` (stereo not shown) [urea, N-[[5-chloro-3′-(2-imino-1,4-dimethyl-5-oxo-4-imidazolidinyl)[1,1′-biphenyl]-2-yl]methyl]-N′-phenyl-]: < 5000 nM.

The term Ki denotes a dissociation constant, usually derived from enzyme kinetics or from competition with a known ligand.
